Measured values reported in ChEMBL document CHEMBL1649524, “Resistance selection studies comparing the activity of razupenem (PTZ601) to vancomycin and linezolid against eight methicillin-resistant and two methicillin-susceptible Staphylococcus aureus strains” (2009).
Converted amounts (≈) assume the structure as drawn.

Legend:
Type in all cases: functional
Staphylococcus aureus [1] = assay: Antimicrobial activity against methicillin-resistant Staphylococcus aureus 525 after 28 passages by macrodilution method
Staphylococcus aureus [2] = assay: Antimicrobial activity against methicillin-resistant Staphylococcus aureus 525 measured on day 50 by macrodilution method
Staphylococcus aureus [3] = assay: Antimicrobial activity against methicillin-susceptible Staphylococcus aureus 543 measured on day 50 by macrodilution method
Staphylococcus aureus [4] = assay: Antimicrobial activity against methicillin-susceptible Staphylococcus aureus 540 after 49 passages by macrodilution method
Staphylococcus aureus [5] = assay: Antimicrobial activity against methicillin-susceptible Staphylococcus aureus 543 measured on day 20 by macrodilution method; conditions: Staphylococcus aureus, 543, 480 h
Staphylococcus aureus [6] = assay: Antimicrobial activity against heterogeneous vancomycin-intermediate Staphylococcus aureus 168 measured on day 20 by macrodilution method; conditions: Staphylococcus aureus, 168, 480 h
Staphylococcus aureus [7] = assay: Antimicrobial activity against vancomycin-resistant Staphylococcus aureus 509 measured on day 5 by macrodilution method; conditions: Staphylococcus aureus, 509, 120 h
Staphylococcus aureus [8] = assay: Antimicrobial activity against methicillin-susceptible Staphylococcus aureus 543 measured on day 10 by macrodilution method; conditions: Staphylococcus aureus, 543, 240 h
Staphylococcus aureus [9] = assay: Antimicrobial activity against vancomycin-resistant Staphylococcus aureus 509 measured on day 25 by macrodilution method; conditions: Staphylococcus aureus, 509, 600 h
Staphylococcus aureus [10] = assay: Antimicrobial activity against methicillin-susceptible Staphylococcus aureus 540 measured on day 35 by macrodilution method
Staphylococcus aureus [11] = assay: Antimicrobial activity against methicillin-susceptible Staphylococcus aureus 543 measured on day 15 by macrodilution method; conditions: Staphylococcus aureus, 543, 360 h
Staphylococcus aureus [12] = assay: Antimicrobial activity against heterogeneous vancomycin-intermediate Staphylococcus aureus 168 measured on day 35 by macrodilution method
Staphylococcus aureus [13] = assay: Antimicrobial activity against methicillin-susceptible Staphylococcus aureus 543 measured on day 35 by macrodilution method
Staphylococcus aureus [14] = assay: Antimicrobial activity against heterogeneous vancomycin-intermediate Staphylococcus aureus 873 by macrodilution method
Staphylococcus aureus [15] = assay: Antimicrobial activity against methicillin-susceptible Staphylococcus aureus 540 measured on day 45 by macrodilution method
Staphylococcus aureus [16] = assay: Antimicrobial activity against vancomycin-intermediate Staphylococcus aureus 1287 measured on day 45 by macrodilution method
Staphylococcus aureus [17] = assay: Antimicrobial activity against methicillin-resistant Staphylococcus aureus 525 measured on day 15 by macrodilution method; conditions: Staphylococcus aureus, 525, 360 h
Staphylococcus aureus [18] = assay: Antimicrobial activity against vancomycin-intermediate Staphylococcus aureus 555 measured on day 35 by macrodilution method
Staphylococcus aureus [19] = assay: Antimicrobial activity against methicillin-resistant Staphylococcus aureus 547 measured on day 50 by macrodilution method
Staphylococcus aureus [20] = assay: Antimicrobial activity against methicillin-susceptible Staphylococcus aureus 540 measured on day 20 by macrodilution method; conditions: Staphylococcus aureus, 540, 480 h
Staphylococcus aureus [21] = assay: Antimicrobial activity against heterogeneous vancomycin-intermediate Staphylococcus aureus 873 measured on day 10 by macrodilution method; conditions: Staphylococcus aureus, 873, 240 h
Staphylococcus aureus [22] = assay: Antimicrobial activity against heterogeneous vancomycin-intermediate Staphylococcus aureus 168 measured on day 10 by macrodilution method; conditions: Staphylococcus aureus, 168, 240 h
Staphylococcus aureus [23] = assay: Antimicrobial activity against vancomycin-resistant Staphylococcus aureus 510 measured on day 30 by macrodilution method
Staphylococcus aureus [24] = assay: Antimicrobial activity against methicillin-susceptible Staphylococcus aureus 543 after 50 passages by macrodilution method
Staphylococcus aureus [25] = assay: Antimicrobial activity against methicillin-susceptible Staphylococcus aureus 540 measured on day 5 by macrodilution method; conditions: Staphylococcus aureus, 540, 120 h
Staphylococcus aureus [26] = assay: Antimicrobial activity against methicillin-resistant Staphylococcus aureus 525 measured on day 10 by macrodilution method; conditions: Staphylococcus aureus, 525, 240 h
Staphylococcus aureus [27] = assay: Antimicrobial activity against vancomycin-intermediate Staphylococcus aureus 555 measured on day 10 by macrodilution method; conditions: Staphylococcus aureus, 555, 240 h
Staphylococcus aureus [28] = assay: Antimicrobial activity against vancomycin-intermediate Staphylococcus aureus 555 by macrodilution method
Staphylococcus aureus [29] = assay: Antimicrobial activity against vancomycin-intermediate Staphylococcus aureus 555 measured on day 30 by macrodilution method
Staphylococcus aureus [30] = assay: Antimicrobial activity against vancomycin-intermediate Staphylococcus aureus 1287 measured on day 5 by macrodilution method; conditions: Staphylococcus aureus, 1287, 120 h
Staphylococcus aureus [31] = assay: Antimicrobial activity against vancomycin-resistant Staphylococcus aureus 510 measured on day 50 by macrodilution method
Staphylococcus aureus [32] = assay: Antimicrobial activity against heterogeneous vancomycin-intermediate Staphylococcus aureus 168 measured on day 45 by macrodilution method
Staphylococcus aureus [33] = assay: Antimicrobial activity against methicillin-resistant Staphylococcus aureus 547 measured on day 25 by macrodilution method; conditions: Staphylococcus aureus, 547, 600 h
Staphylococcus aureus [34] = assay: Antimicrobial activity against vancomycin-intermediate Staphylococcus aureus 555 measured on day 15 by macrodilution method; conditions: Staphylococcus aureus, 555, 360 h
Staphylococcus aureus [35] = assay: Antimicrobial activity against methicillin-susceptible Staphylococcus aureus 543 measured on day 30 by macrodilution method
Staphylococcus aureus [36] = assay: Antimicrobial activity against vancomycin-intermediate Staphylococcus aureus 1287 measured on day 15 by macrodilution method; conditions: Staphylococcus aureus, 1287, 360 h
Staphylococcus aureus [37] = assay: Antimicrobial activity against methicillin-susceptible Staphylococcus aureus 540 measured on day 15 by macrodilution method; conditions: Staphylococcus aureus, 540, 360 h
Staphylococcus aureus [38] = assay: Antimicrobial activity against methicillin-resistant Staphylococcus aureus 547 measured on day 10 by macrodilution method; conditions: Staphylococcus aureus, 547, 240 h
Staphylococcus aureus [39] = assay: Antimicrobial activity against vancomycin-intermediate Staphylococcus aureus 1287 measured on day 10 by macrodilution method; conditions: Staphylococcus aureus, 1287, 240 h
Staphylococcus aureus [40] = assay: Antimicrobial activity against methicillin-resistant Staphylococcus aureus 525 measured on day 45 by macrodilution method
Staphylococcus aureus [41] = assay: Antimicrobial activity against heterogeneous vancomycin-intermediate Staphylococcus aureus 873 measured on day 45 by macrodilution method
Staphylococcus aureus [42] = assay: Antimicrobial activity against methicillin-resistant Staphylococcus aureus 547 measured on day 20 by macrodilution method; conditions: Staphylococcus aureus, 547, 480 h
Staphylococcus aureus [43] = assay: Antimicrobial activity against vancomycin-intermediate Staphylococcus aureus 555 measured on day 45 by macrodilution method
Staphylococcus aureus [44] = assay: Antimicrobial activity against methicillin-resistant Staphylococcus aureus 525 measured on day 20 by macrodilution method; conditions: Staphylococcus aureus, 525, 480 h
Staphylococcus aureus [45] = assay: Antimicrobial activity against vancomycin-resistant Staphylococcus aureus 509 measured on day 50 by macrodilution method
Staphylococcus aureus [46] = assay: Antimicrobial activity against vancomycin-resistant Staphylococcus aureus 509 measured after 10 antibiotic-free subculturing by macrodilution method
Staphylococcus aureus [47] = assay: Antimicrobial activity against heterogeneous vancomycin-intermediate Staphylococcus aureus 168 measured on day 5 by macrodilution method; conditions: Staphylococcus aureus, 168, 120 h
Staphylococcus aureus [48] = assay: Antimicrobial activity against heterogeneous vancomycin-intermediate Staphylococcus aureus 873 measured after 10 antibiotic-free subculturing by macrodilution method
Staphylococcus aureus [49] = assay: Antimicrobial activity against vancomycin-intermediate Staphylococcus aureus 555 measured on day 5 by macrodilution method; conditions: Staphylococcus aureus, 555, 120 h

## C[C@H]1C=C(c2csc(SC3=C(C(=O)O)N4C(=O)[C@H]([C@@H](C)O)[C@H]4[C@H]3C)n2)CN1 [RAZUPENEM]
Staphylococcus aureus [1]
  MIC: 16 µg/mL (≈ 39.3 µM)
Staphylococcus aureus [2]
  MIC: 32 µg/mL (≈ 78.5 µM)
Staphylococcus aureus [3]
  MIC: 0.06 µg/mL (≈ 0.147 µM)
Staphylococcus aureus [4]
  MIC: 0.125 µg/mL (≈ 0.307 µM)
Staphylococcus aureus [5]
  MIC: 0.03 µg/mL (≈ 0.0736 µM)
Staphylococcus aureus [6]
  MIC: 8 µg/mL (≈ 19.6 µM)
Staphylococcus aureus [7]
  MIC: 2 µg/mL (≈ 4.91 µM)
Staphylococcus aureus [8]
  MIC: 0.03 µg/mL (≈ 0.0736 µM)
Staphylococcus aureus [9]
  MIC: 4 µg/mL (≈ 9.82 µM)
Staphylococcus aureus [10]
  MIC: 0.06 µg/mL (≈ 0.147 µM)
Staphylococcus aureus [11]
  MIC: 0.03 µg/mL (≈ 0.0736 µM)
Staphylococcus aureus [12]
  MIC: 8 µg/mL (≈ 19.6 µM)
Staphylococcus aureus [13]
  MIC: 0.06 µg/mL (≈ 0.147 µM)
Staphylococcus aureus [14]
  MIC: 2 µg/mL (≈ 4.91 µM)
Staphylococcus aureus [15]
  MIC: 0.06 µg/mL (≈ 0.147 µM)
Staphylococcus aureus [16]
  MIC: 2 µg/mL (≈ 4.91 µM)
Staphylococcus aureus [17]
  MIC: 4 µg/mL (≈ 9.82 µM)
Staphylococcus aureus [18]
  MIC: 4 µg/mL (≈ 9.82 µM)
Staphylococcus aureus [19]
  MIC: 16 µg/mL (≈ 39.3 µM)
Staphylococcus aureus [20]
  MIC: 0.03 µg/mL (≈ 0.0736 µM)
Staphylococcus aureus [21]
  MIC: 2 µg/mL (≈ 4.91 µM)
Staphylococcus aureus [22]
  MIC: 4 µg/mL (≈ 9.82 µM)
Staphylococcus aureus [23]
  MIC: 4 µg/mL (≈ 9.82 µM)
Staphylococcus aureus [24]
  MIC: 0.06 µg/mL (≈ 0.147 µM)
Staphylococcus aureus [25]
  MIC: 0.016 µg/mL (≈ 0.0393 µM)
Staphylococcus aureus [26]
  MIC: 4 µg/mL (≈ 9.82 µM)
Staphylococcus aureus [27]
  MIC: 1 µg/mL (≈ 2.45 µM)
Staphylococcus aureus [28]
  MIC: 0.5 µg/mL (≈ 1.23 µM)
Staphylococcus aureus [29]
  MIC: 8 µg/mL (≈ 19.6 µM)
Staphylococcus aureus [30]
  MIC: 0.25 µg/mL (≈ 0.613 µM)
Staphylococcus aureus [31]
  MIC: 4 µg/mL (≈ 9.82 µM)
Staphylococcus aureus [32]
  MIC: 8 µg/mL (≈ 19.6 µM)
Staphylococcus aureus [33]
  MIC: 4 µg/mL (≈ 9.82 µM)
Staphylococcus aureus [34]
  MIC: 2 µg/mL (≈ 4.91 µM)
Staphylococcus aureus [35]
  MIC: 8 µg/mL (≈ 19.6 µM)
Staphylococcus aureus [36]
  MIC: 0.25 µg/mL (≈ 0.613 µM)
Staphylococcus aureus [37]
  MIC: 0.03 µg/mL (≈ 0.0736 µM)
Staphylococcus aureus [38]
  MIC: 1 µg/mL (≈ 2.45 µM)
Staphylococcus aureus [39]
  MIC: 0.25 µg/mL (≈ 0.613 µM)
Staphylococcus aureus [40]
  MIC: 32 µg/mL (≈ 78.5 µM)
Staphylococcus aureus [41]
  MIC: 16 µg/mL (≈ 39.3 µM)
Staphylococcus aureus [42]
  MIC: 4 µg/mL (≈ 9.82 µM)
Staphylococcus aureus [43]
  MIC: 8 µg/mL (≈ 19.6 µM)
Staphylococcus aureus [44]
  MIC: 4 µg/mL (≈ 9.82 µM)
Staphylococcus aureus [45]
  MIC: 4 µg/mL (≈ 9.82 µM)
Staphylococcus aureus [46]
  MIC: 1 µg/mL (≈ 2.45 µM)
Staphylococcus aureus [47]
  MIC: 4 µg/mL (≈ 9.82 µM)
Staphylococcus aureus [48]
  MIC: 8 µg/mL (≈ 19.6 µM)
Staphylococcus aureus [49]
  MIC: 1 µg/mL (≈ 2.45 µM)
